Experimental data as given in ChEMBL document CHEMBL3526048, “In vitro metabolism of rivoglitazone, a novel peroxisome proliferator-activated receptor γ agonist, in rat, monkey, and human liver microsomes and freshly isolated hepatocytes” (Drug Metab Dispos, 2011).

Key:
[1] = biological target: T1, UDP-glucuronosyltransferase 2B7 (Homo sapiens, UniProt P16662); assay: Activity of human UGT2B7 expressed in microsomes isolated from baculovirus infected insect cell assessed as enzyme-mediated compound formation treated with [14C]-rivoglitazone at 20 uM after 4 hrs by radio-HPLC/LC-MS/MS analysis in presence of UDPGA, UDPGA/SAM
T1 sequence (P16662 whole entry): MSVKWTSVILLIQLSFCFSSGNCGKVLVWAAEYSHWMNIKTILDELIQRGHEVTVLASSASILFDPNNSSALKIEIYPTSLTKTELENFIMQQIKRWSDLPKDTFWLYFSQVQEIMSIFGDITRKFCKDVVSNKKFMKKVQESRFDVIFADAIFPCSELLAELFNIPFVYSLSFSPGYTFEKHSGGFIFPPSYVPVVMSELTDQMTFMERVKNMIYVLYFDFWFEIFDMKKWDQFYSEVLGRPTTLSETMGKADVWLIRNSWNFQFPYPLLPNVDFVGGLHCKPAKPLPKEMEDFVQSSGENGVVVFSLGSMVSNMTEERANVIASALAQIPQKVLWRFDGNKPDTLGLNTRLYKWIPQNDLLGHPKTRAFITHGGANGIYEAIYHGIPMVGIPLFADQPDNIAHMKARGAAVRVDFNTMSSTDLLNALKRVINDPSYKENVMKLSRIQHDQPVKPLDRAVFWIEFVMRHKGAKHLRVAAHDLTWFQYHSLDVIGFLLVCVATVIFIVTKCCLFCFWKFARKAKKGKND

[2] = biological target: T2, UDP-glucuronosyltransferase 1A6 (Homo sapiens, UniProt P19224); assay: Activity of human UGT1A6 expressed in microsomes isolated from baculovirus infected insect cell assessed as enzyme-mediated (2S,3S,4S,5R,6R)-6-((1-carboxy-2-(4-((6-methoxy-1-methyl-1H-benzo[d]imidazol-2-yl)methoxy)phenyl)ethylthio)carbonylamino)-3,4,5-trihydroxytetrahydro-2H-pyran-2-carboxylic acid formation at 20 uM after 4 hrs by radio-HPLC/LC-MS/MS analysis in presence of UDPGA; type: ADME
T2 sequence (P19224 whole entry): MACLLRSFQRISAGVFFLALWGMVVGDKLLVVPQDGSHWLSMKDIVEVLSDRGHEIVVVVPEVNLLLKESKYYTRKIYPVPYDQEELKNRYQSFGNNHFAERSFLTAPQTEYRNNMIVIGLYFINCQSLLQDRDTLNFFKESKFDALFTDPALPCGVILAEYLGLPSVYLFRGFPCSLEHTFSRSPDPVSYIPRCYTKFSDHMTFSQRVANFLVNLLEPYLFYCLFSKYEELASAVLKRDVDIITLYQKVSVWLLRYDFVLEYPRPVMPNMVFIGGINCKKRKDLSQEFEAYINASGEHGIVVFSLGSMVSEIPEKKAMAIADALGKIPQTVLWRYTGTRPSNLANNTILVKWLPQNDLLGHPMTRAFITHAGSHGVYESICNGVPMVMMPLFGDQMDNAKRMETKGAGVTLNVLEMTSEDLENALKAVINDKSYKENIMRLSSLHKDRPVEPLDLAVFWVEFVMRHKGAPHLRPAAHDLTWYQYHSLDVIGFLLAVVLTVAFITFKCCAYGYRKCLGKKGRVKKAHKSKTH

[3] = biological target: T1, UDP-glucuronosyltransferase 2B7; assay: (§1) Activity of human UGT2B7 expressed in microsomes isolated from baculovirus infected insect cell assessed as enzyme-mediated (2S,3S,4S,5R,6R)-3,4,5-trihydroxy-6-(5-(4-((6-methoxy-1-methyl-1H-benzo[d]imidazol-2-yl)methoxy)benzyl)-2,4-dioxothiazolidin-3-yl)tetrahydro-2H-pyran-2-carboxylic acid formation at 20 uM after 4 hrs by radio-HPLC/LC-MS/MS analysis in presence of UDPGA and UDPGA/SAM; type: ADME
[4] = biological target: T1, UDP-glucuronosyltransferase 2B7; assay: Activity of human UGT2B7 expressed in microsomes isolated from baculovirus infected insect cell assessed as enzyme-mediated 2-mercapto-3-(4-((6-methoxy-1-methyl-1H-benzo[d]imidazol-2-yl)methoxy)phenyl)propanoic acid formation at 20 uM after 4 hrs by radio-HPLC/LC-MS/MS analysis in presence of UDPGA, UDPGA/SAM and NADPH-generating system in presence of UDPGA and UDPGA/SAM; type: ADME
[5] = biological target: T3, UDP-glucuronosyltransferase 1A4 (Homo sapiens, UniProt P22310); assay: as §1, with “UGT1A4” for “UGT2B7”, “UDPGA” for “UDPGA and UDPGA/SAM”; type: ADME
T3 sequence (P22310 whole entry): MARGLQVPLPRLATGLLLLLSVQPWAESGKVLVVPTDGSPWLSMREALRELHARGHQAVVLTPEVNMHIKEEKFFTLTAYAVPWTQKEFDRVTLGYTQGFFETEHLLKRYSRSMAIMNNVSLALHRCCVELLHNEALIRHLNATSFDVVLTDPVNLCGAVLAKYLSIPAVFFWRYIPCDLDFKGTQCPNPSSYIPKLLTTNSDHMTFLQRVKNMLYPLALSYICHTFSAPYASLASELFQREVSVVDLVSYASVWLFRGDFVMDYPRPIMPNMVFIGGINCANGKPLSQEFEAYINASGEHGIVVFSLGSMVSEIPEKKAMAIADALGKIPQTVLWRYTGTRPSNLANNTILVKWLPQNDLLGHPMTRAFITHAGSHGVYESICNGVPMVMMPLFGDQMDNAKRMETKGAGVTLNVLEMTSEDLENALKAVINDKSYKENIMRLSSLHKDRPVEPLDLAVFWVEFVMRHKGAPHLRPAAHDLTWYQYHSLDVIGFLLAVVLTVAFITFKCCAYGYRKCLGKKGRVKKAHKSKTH

Cytochrome P450 3A4 = Cytochrome P450 3A4 (Homo sapiens, UniProt P08684); assay: Activity of human CYP3A4 expressed in microsomes isolated from baculovirus infected insect cell assessed as enzyme-mediated 5-hydroxy-5-(4-((6-methoxy-1-methyl-1H-benzo[d]imidazol-2-yl)methoxy)benzyl)thiazolidine-2,4-dione formation at 20 uM after 2 hrs by radio-HPLC/LC-MS/MS analysis in presence of NADPH-generating system and NADPH-generating system/SAM; type: ADME
Liver microsome [6] = assay: Drug metabolism in human liver microsomes assessed as formation of 2-mercapto-3-(4-((6-methoxy-1-methyl-1H-benzo[d]imidazol-2-yl)methoxy)phenyl)propanoic acid at 20 uM after 2 to 4 hrs by radio-HPLC/LC-MS/MS analysis in presence of UDPGA, UDPGA/SAM and NADPH-generating system; type: ADME
Liver microsome [7] = assay: Drug metabolism in human liver microsomes assessed as formation of 2-((4-((2,4-dioxothiazolidin-5-yl)methyl)phenoxy)methyl)-1-methyl-1H-benzo[d]imidazol-6-yl hydrogen sulfate at 20 uM by radio-HPLC/LC-MS/MS analysis; type: ADME

Chain of Cytochrome P450 3A4 (P08684 whole entry): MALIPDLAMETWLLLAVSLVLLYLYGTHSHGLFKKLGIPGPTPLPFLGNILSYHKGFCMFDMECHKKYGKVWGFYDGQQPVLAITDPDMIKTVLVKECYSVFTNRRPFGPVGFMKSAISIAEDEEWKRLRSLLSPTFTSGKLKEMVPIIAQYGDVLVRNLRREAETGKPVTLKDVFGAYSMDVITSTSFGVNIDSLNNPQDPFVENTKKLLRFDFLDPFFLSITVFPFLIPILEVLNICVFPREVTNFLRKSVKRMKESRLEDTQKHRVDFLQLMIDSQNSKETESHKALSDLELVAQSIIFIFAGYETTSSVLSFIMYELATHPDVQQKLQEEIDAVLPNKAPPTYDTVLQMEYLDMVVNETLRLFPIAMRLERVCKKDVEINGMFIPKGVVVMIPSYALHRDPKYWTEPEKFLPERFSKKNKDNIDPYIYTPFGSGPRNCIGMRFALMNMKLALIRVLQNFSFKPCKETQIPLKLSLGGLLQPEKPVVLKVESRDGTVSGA

| SMILES | Drug metabolism [1] | Drug metabolism [2] | Drug metabolism [3] | Drug metabolism [4] | Drug metabolism [5] | Drug metabolism (Cytochrome P450 3A4) | Drug metabolism (Liver microsome [6]) | Drug metabolism (Liver microsome [7]) |
| --- | --- | --- | --- | --- | --- | --- | --- | --- |
| COc1ccc2nc(COc3ccc(CC(S)C(=O)O)cc3)n(C)c2c1 (stereo not drawn) | metabolite_detected |  |  |  |  |  |  |  |
| COc1ccc2nc(COc3ccc(C[14CH]4SC(=O)NC4=O)cc3)n(C)c2c1.Cl (racemic) |  | metabolite_not_detected | metabolite_detected | metabolite_detected | metabolite_not_detected | metabolite_detected | metabolite_detected | metabolite_not_detected |
